In patent publication US20130266636A1, “METHODS FOR BLOCKING CELL PROLIFERATION AND TREATING DISEASES AND CONDITIONS RESPONSIVE TO CELL GROWTH INHIBITION” (THE REGENTS OF THE UNIVERSITY OF CALIFORNIA, priority 2010, published 2013):
“Also recorded” adds a separate entry of the source.

Assays:
NCI-60 panel = NCI-60 panel growth inhibition, overall; format: cell-based, human
Source text: FIG. 8 illustrates […] panel showing the half maximal growth inhibitory concentration of KG5 in […] human cancer cell lines.
Table 1 summarizes KG5's effect in 60 NCI cancer cell lines: the NCI-60 panel showing the half maximal growth inhibitory concentration of KG5 and the RAS and BRAF status in 60 human cancer cell lines.

[1] = biological target: RAF dimerization (BRAF and CRAF) (Homo sapiens, UniProt P04049); assay: RAF dimerization, immunoblot of BRAF and CRAF immunoprecipitates from A549 cells; format: cell-based
Description: FIG. 11 illustrates immunoblot analysis of BRAF and CRAF immunoprecipitates from A549 cells treated with PD0325901, Sorafenib, L-779450, PLX4720, KG5 or KG1.
(§1) Immunoprecipitation and Immunoblot Analysis Cells were lysed in either NP40 lysis buffer (150 mM NaCl, 50 mM Tris Base pH 7.4, 1% NP40) or RIPA buffer (50 mM Tris pH 7.4, 100 mM NaCl, 0.1% SDS) supplemented with complete protease inhibitor mixture (Roche), 50 mM NaF and 1 mM Na3VO4 and centrifuged at 13,000×g for 10 min at 4° C. Protein concentration was determined by BCA assay. […] of protein were immunoprecipitated with […] of anti-Flag (Sigma), anti-CRAF (BD Pharmingen), anti-Plk1 (Abcam), anti-γ-Tubulin (sigma) or anti-cenpF (Santa Cruz) antibodies overnight at 4° C. followed by capture with 25 μl of protein A/G (Pierce). Beads were washed five times, eluted in boiling Laemmli buffer, resolved on 10% SDS-PAGE and immunoblotting was performed with anti-Plk1 antibody (Abcam), anti-CRAF antibody (BD Pharmingen), anti-Aurora A (Abcam), anti-phospho-S338 CRAF (Cell Signaling), anti-phospho-T210 Plk1 or anti-phospho-T288 Aurora A (Cell signaling) diluted 1:1000. For immunoblot analysis, […] of protein was boiled in […]

[2] = test system: human breast (MDA-MB-231) carcinoma cell line; assay: Cell viability assay in MDA-MB-231 cells; format: cell-based
Plk1 [3] = assay: Plk1 activity in tumor cells arrested in pro-metaphase; format: cell-based, human; settings: compared to cells arrested with nocodazole or paclitaxel
Source text: (§2) FIG. 46. CRAF regulates Plk1 activity and localization. FIG. 46(a) Plk1 kinase activity assay performed in WT and CRAF−/− MEFs. Error bars represent s.d. (n=3); * two tailed p value=0.029 using Mann Whitney U test. FIG. 46(b) Immunoblot analysis of XPA-1 cells asynchronous or arrested in mitosis by treatment with KG5, nocodazole or paclitaxel (referred to as Ncdzl and Ptxl respectively). pPlk1 refers to phospho-T210 Plk1 and pHH3 refers to phospho-Histone H3. Data are representative of three independent experiments. FIG. 46(c) Plk1 kinase activity assay performed in HCT-116 cells treated with nocodazole or nocodazole and KG5. Error bars represent s.d. ([…]); * two tailed p value=0.002 using Mann Whitney U test. FIG. 46(d) Immunoblot analysis of CenpF immunoprecipitates from HCT-116 cells untreated or treated with KG5. Data are representative of three independent experiments. FIG. 46(e) Confocal microscopy images of XPA-1 cell at prophase (upper panel), pro-metaphase control untreated (middle panel) or treated with KG5 (lower panel). Cells were stained for phospho-T210 Plk1 (in green), a tubulin (in red) and DNA (TOPRO-3™ in blue). […]
Plk1 enzymatic activity in cell lysates from WT, CRAF−/− MEFs, HCT-116 cells expressing WT or S338D CRAF and HCT-116 cells treated with the allosteric RAF inhibitor KG5 was determined using the Plk1 kinase kit from MBL and following the manufacturer's protocol.

Plk1 [4] = assay: Plk1 localization, confocal microscopy and CenpF immunoprecipitates; format: cell-based, human
Source text: as §2, with “blue). Thick white arrows indicate localization of pPlk1 at the mitotic spindle pole and narrow white arrows indicate localization of pPlk1 at the kinetochores. Scale bar, 10 p.m.” for “blue).”

CRAF = CRAF (Homo sapiens, UniProt P04049); assay: Phospho-S338 CRAF immunoblot in XPA-1 cells; format: cell-based; design: total CRAF and total MEK of lysates from XPA-1 cells treated with PD0325901, Sorafenib, L-779450, PLX4720, KG5 or KG1; endogenous in cells; host or cells: XPA-1
Description: FIGS. 6 and 7 illustrate immunoblot analysis of CRAF immunoprecipitated from XPA-1 cells treated with KG5 and KG38.
FIG. 13 illustrates immunoblot analysis of phospho-5338 CRAF, phospho-MEK, total CRAF and total MEK of lysates from XPA-1 cells treated with PD0325901, Sorafenib, L-779450, PLX4720, KG5 or KG1.
as §1

Sequence of CRAF (P04049 whole entry): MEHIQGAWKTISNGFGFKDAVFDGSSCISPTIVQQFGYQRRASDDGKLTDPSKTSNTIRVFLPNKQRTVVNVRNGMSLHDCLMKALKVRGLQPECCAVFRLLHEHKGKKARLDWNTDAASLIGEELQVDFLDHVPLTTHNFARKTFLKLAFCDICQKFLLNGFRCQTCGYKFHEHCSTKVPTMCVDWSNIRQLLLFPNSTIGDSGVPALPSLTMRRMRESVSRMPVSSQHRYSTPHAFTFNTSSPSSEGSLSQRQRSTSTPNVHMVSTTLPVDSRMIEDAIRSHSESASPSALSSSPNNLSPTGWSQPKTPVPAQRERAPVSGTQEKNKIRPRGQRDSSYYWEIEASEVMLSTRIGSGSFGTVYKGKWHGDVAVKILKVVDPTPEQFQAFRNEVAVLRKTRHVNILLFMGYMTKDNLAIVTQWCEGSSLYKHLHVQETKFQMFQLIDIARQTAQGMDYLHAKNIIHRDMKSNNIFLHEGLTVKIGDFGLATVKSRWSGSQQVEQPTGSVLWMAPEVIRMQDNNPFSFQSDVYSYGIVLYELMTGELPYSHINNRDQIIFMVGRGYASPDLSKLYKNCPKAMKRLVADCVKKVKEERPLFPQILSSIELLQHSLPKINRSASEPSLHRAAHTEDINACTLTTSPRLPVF
Sequence of RAF dimerization (BRAF and CRAF) (P04049 whole entry): as above

For `CSc1nc(N)cc(Oc2ccc(-c3nnc(Nc4cccc(C(F)(F)F)c4)[nH]3)cc2)n1` [KG5], the “growth inhibitory activity against the NCI-60 panel” value (NCI-60 panel) was “inhibits the growth of several human cancer cell lines; also recorded: broad growth inhibitory activity”, the RAF dimerization [1] was “prevents RAF dimerization” and the cell viability ([2]; MDA-MB-231) was “decrease cell viability”. The EC50 ([2]; MDA-MB-231 breast cancer cell viability assays) was “approach picomolar (pM) EC50s”, the Plk1 activity (Plk1 [3]) was “decreased Plk1 activity” and the “Plk1 localization to the spindle pole” value (Plk1 [4]) was “no effect on Plk1 localization to the spindle pole”. For the same compound, the “accumulation of active Plk1 at the kinetochores” value (Plk1 [4]) was “prevented the subsequent accumulation of active Plk1 at the kinetochores” and the “serine 338 phosphorylation on CRAF” value (CRAF) was “prevent; also recorded: inhibits phosphorylation of CRAF on serine 338”.
